Laboratory results reported in patent US10899754B2, “Modulators of indoleamine 2,3-dioxygenase” (GLAXOSMITHKLINE INTELLECTUAL PROPERTY DEVELOPMENT LIMITED, priority 2016, dated 2021).

Columns and labels:
Assay type in all cases: cell-based
[1] = molecular target: T1, indoleamine 2, 3-dioxygenase (IDO1) (Homo sapiens, UniProt P14902); assay: IDO1 PBMC RapidFire MS assay (kynurenine detection by mass spectrometry); set-up: to induce the expression of indoleamine 2, 3-dioxygenase (IDO1); host or cells: human PBMC stimulated with IFN-gamma and LPS; details: human PBMC stimulated with IFN-γ and LPS, 2 days, pIC50, read-out: PBMC PXC50 (converted)
T1 sequence (P14902 whole entry): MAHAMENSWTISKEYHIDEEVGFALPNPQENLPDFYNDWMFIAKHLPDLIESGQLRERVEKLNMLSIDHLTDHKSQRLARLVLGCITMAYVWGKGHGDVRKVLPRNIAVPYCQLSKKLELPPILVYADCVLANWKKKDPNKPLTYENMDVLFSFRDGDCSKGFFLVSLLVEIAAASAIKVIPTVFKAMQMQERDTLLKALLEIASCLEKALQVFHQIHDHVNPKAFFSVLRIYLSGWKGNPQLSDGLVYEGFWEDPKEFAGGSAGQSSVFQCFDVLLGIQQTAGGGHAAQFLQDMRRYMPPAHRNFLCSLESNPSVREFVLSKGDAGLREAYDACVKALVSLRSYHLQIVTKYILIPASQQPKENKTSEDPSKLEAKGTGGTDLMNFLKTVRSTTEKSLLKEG
In short: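 PBMCs (50,000 cells/well) stimulated with IFN-γ 100 ng/ml plus LPS 50 ng/ml, treated with 11-point 3-fold compound series for 2 days at 37° C. Supernatant kynurenine measured by RapidFire MS, normalised to internal standard; parallel cytotoxicity by CellTiter-Glo luminescence; curves fitted for XC50.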

[2] = molecular target: T1, indoleamine 2, 3-dioxygenase (IDO1); assay: IDO1 HeLa RapidFire MS assay (kynurenine detection by mass spectrometry); set-up: to induce the expression of indoleamine 2, 3-dioxygenase (IDO1); details: HeLa cells, pIC50, read-out: IDO1_HELA_PXC50 (converted)
In short: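 Compound potency reported as pIC50 from kynurenine/internal-standard ratio (RapidFire MS) in supernatant of IFN-γ-induced (10 nM) HeLa cells, 5,000 per well, after 2 days' treatment with 11-point dilutions. Cytotoxicity in the same format by luminescent ATP detection, reported as pCC50.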

[3] = tested on: human epithelial HeLa cells; assay: HeLa cytotoxicity assay (CellTiter-Glo); details: pCC50
In short: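 HeLa cells (5,000/well) stimulated with 10 nM IFN-γ, exposed to 11-point 3-fold compound dilutions for 2 days at 37 °C; viability by CellTiter-Glo ATP luminescence. Normalized to cell-free (100% cytotoxicity) and stimulated-cell DMSO (0%) controls; four-parameter fit gives pCC50.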

[4] = tested on: human peripheral blood mononuclear cells (PBMC); assay: PBMC cytotoxicity assay (CellTiter-Glo); details: 2 days, pCC50
In short: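 Human PBMC (50,000 cells/well) stimulated with IFN-γ 100 ng/ml and LPS 50 ng/ml were exposed to 11-point 3-fold compound dilutions for 2 days at 37 °C, 5% CO2. Viability read by CellTiter-Glo ATP luminescence and normalized to no-cell and stimulated-DMSO controls. XC50 derived by four-parameter fit.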

Compound | IC50 [1] [nM] | IC50 [2] [nM] | HELA_IDO1_TOX_PXC50 [3] | PBMC TOX PXC50 [4]
CC(C)CN(c1ccc([C@H](C)Cc2nnn[nH]2)cc1Nc1nc(Cl)ns1)C1CCCCC1 [Example 102, (R)-4-(1-(1H-tetrazol-5-yl)propan-2-yl)-N^2-(3-chloro-1,2,4-thiadiazol-5-yl)-N^1-cyclohexyl-N^1-isobutylbenzene-1,2-diamine] | 5.01 | 7.94 | <5 | <5
CC(C)CN(c1ccc([C@H](C)CC(=O)O)cc1Nc1ccc(C#N)cn1)C1CCCCC1 [Example 73, (R)-3-(3-((5-cyanopyridin-2-yl)amino)-4-(cyclohexyl(isobutyl)amino)phenyl)butanoic Acid] | 0.794 | 3.98 | <5 | <5
CC(C)CN(c1ccc([C@H](C)CC(=O)O)cc1Nc1ccc(Cl)nc1)[C@H]1CC[C@@H](O)CC1 [Example 58, (R)-3-(3-((6-chloropyridin-3-yl)amino)-4-(((1s,4S)-4-hydroxycyclohexyl) (isobutyl)amino)phenyl)butanoic Acid] | 7.94 | 10 | <5 | <5
CC(C)CN(c1ccc([C@H](C)CC(=O)O)cc1Nc1nnc(C(N)=O)s1)C1CCCCC1 [Example 81, (R)-3-(3-((5-Carbamoyl-1,3,4-thiadiazol-2-yl)amino)-4-(cyclohexyl(isobutyl)amino)phenyl)butanoic] | 3.98 | 7.94 | <5 | <5
CC(C)CN(c1ccc(-c2ccccc2C(=O)O)cc1Nc1nc(C(F)(F)F)ns1)[C@H]1CC[C@H](O)CC1 [Example 112, 4′-(((1r,4r)-4-hydroxycyclohexyl) (isobutyl)amino)-3′-((3-(trifluoromethyl)-1,2,4-thiadiazol-5-yl)amino)-[1,1′-biphenyl]-2-carboxylic Acid] | 7.94 | 15.8 | <5 | 6.1
CC(C)CN(c1ccc(C2CC2C(=O)O)cc1Nc1nc(C(F)(F)F)ns1)C1CCCCC1 (single isomer, unassigned) [Example 105, 2-(4-(cyclohexyl(isobutyl)amino)-3-((3-(trifluoromethyl)-1,2,4-thiadiazol-5-yl)amino)phenyl)cyclopropanecarboxylic Acid] | 3.16 | 6.31 | <5 | –
CC(C)CN(CC(C)C)c1ccc(C(C)CC(=O)O)cc1Nc1nc(N2CCN(C)CC2)ns1 (centres unmarked) [example 116, 3-{4-[bis(2-methylpropyl)amino]-3-{[3-(4-methylpiperazin-1-yl)-1,2,4-thiadiazol-5-yl]amino}phenyl}butanoic acid] | – | 39800 | <4.3 | <4.3
CC(C)CN(CC(C)C)c1ccc(C(C)CC(=O)O)cc1Nc1nc2ccccc2n1C (centres unmarked) [example 119, 3-{4-[bis(2-methylpropyl)amino]-3-[(1-methyl-1H-1,3-benzodiazol-2-yl)amino]phenyl}butanoic acid] | – | 1260 | <4.3 | <4.3
CC(C)CN(CC(C)C)c1ccc(C(C)CC(=O)O)cc1Nc1nc(N2CCCC2)ns1.O=C(O)C(F)(F)F (centres unmarked) [example 118, 3-{4-[bis(2-methylpropyl)amino]-3-{[3-(pyrrolidin-1-yl)-1,2,4-thiadiazol-5-yl]amino}phenyl}butanoic acid] | – | 5010 | <4.3 | <4.3
CC(C)CN(CC(C)C)c1ccc(C(C)CC(=O)O)cc1Nc1nc(N2CCOCC2)ns1.O=C(O)C(F)(F)F (centres unmarked) [example 117, 3-{4-[bis(2-methylpropyl)amino]-3-{[3-(morpholin-4-yl)-1,2,4-thiadiazol-5-yl]amino}phenyl}butanoic acid] | – | 3980 | <4.3 | <4.3
CC(C)CN(CC(C)C)c1ccc(C(C)CC(=O)O)cc1Nc1nnc(C2CC2)o1.O=C(O)C(F)(F)F (centres unmarked) [example 126, 3-{4-[bis(2-methylpropyl)amino]-3-[(5-cyclopropyl-1,3,4-oxadiazol-2-yl)amino]phenyl}butanoic acid] | – | 631 | <4.3 | –
CC(C)CN(c1ccc(-c2ccccc2C(=O)O)cc1Nc1nc(C(F)(F)F)ns1)C1CCN(C(=O)OC(C)(C)C)CC1 [example 273, 4′-({1-[(tert-butoxy)carbonyl]piperidin-4-yl)-(2-methylpropyl)amino)-3′-{[3-(trifluoromethyl)-1,2,4-thiadiazol-5-yl]amino}-[1,1′-biphenyl]-2-carboxylic acid] | – | 7.94 | <5 | –

More lines, main results first:

IC50 [1] [nM] | IC50 [2] [nM] | Compound | HELA_IDO1_TOX_PXC50 [3] | PBMC TOX PXC50 [4]
316 | 631 | CC(C)CN(c1ccc(C(C)CC(=O)O)cc1NC1=NC(=O)[C@H](C)N1)C1CCCCC1 (stereo partly drawn) [example 164, 3-{4-[cyclohexyl(2-methylpropyl)amino]-3-{[(5S)-5-methyl-4-oxo-4,5-dihydro-1H-imidazol-2-yl]amino}phenyl}butanoic acid] | <5 | <5
> 10000 | 3.98 | CO[C@H]1CC[C@@H](N(CC(C)C)c2ccc(-c3ccccc3C(=O)O)cc2Nc2nc(C(F)(F)F)ns2)CC1 [example 276, 4′-[(2-methylpropyl)[(1s,4s)-4-methoxycyclohexyl]ami-no]-3′-{[3-(trifluoromethyl)-1,2,4-thiadiazol-5-yl]amino}-[1,1′-biphenyl]-2-carboxylic acid] | <5 | <5
20 | 39.8 | CC(C)CN(CC(C)C)c1ccc(-c2ccccc2C(=O)O)cc1Nc1nc(Cl)ns1 [example 294, 4′-[bis(2-methylpropyl)amino]-3′-[(3-chloro-1,2,4-thiadiazol-5-yl)amino]-[1,1′-biphenyl]-2-carboxylic acid] | <5 | <5
6310 | > 10000 | CC(C)CN(CC(C)C)c1ccc(C(C)CC(=O)O)cc1-n1nnnc1N (centres unmarked) [example 167, 3-[3-(5-amino-1H-1,2,3,4-tetrazol-1-yl)-4-[bis(2-methylpropyl)amino]phenyl]butanoic acid] | <5 | <5
2000 | 3980 | CC(C)CN(c1ccc(C(C)CC(=O)O)cc1NC1=N[C@@H](c2ccccc2)CO1)C1CCCCC1 (stereo partly drawn) [example 153, 3-{4-[cyclohexyl(2-methylpropyl)amino]-3-{[(4S)-4-phenyl-4,5-dihydro-1,3-oxazol-2-yl]amino}phenyl}butanoic acid] | <5 | <5
> 10000 | > 10000 | CC(C)CN(c1ccc(C(C)CC(=O)O)cc1NCc1ncccn1)C1CCCCC1 (centres unmarked) [example 160, 3-{4-[cyclohexyl(2-methylpropyl)amino]-3-{[(pyrimidin-2-yl)methyl]amino}phenyl} butanoic acid] | <5 | <5
126 | 251 | CC(C)CN(c1ccc([C@H](C)CC(=O)O)cc1NC1CCCC1)C1CCCCC1 [example 179, (3R)-3-{4-[cyclohexyl(2-methylpropyl)amino]-3-(cyclopentylamino)phenyl}butanoic acid] | <5 | –
– | 5010 | CC(C)CN(c1ccc([C@H](C)CC(=O)O)cc1NC1CCC(C)(C)CC1)C1CCCCC1 [example 182, (3R)-3-{4-[cyclohexyl(2-methylpropyl)amino]-3-[(4,4-dimethylcyclohexyl)ami-no]phenyl}butanoic acid] | <5 | –
– | > 10000 | CC(C)CN(c1ccc(C(C)OCC(=O)O)cc1Nc1ccc(C(N)=O)cn1)C1CCCCC1 (centres unmarked) [example 201, 2-(1-{3-[(5-carbamoylpyridin-2-yl)amino]-4-[cyclohexyl(2-methylpropyl)amino]phenyl}ethoxy)acetic acid] | <5 | –
– | 3160 | CC(C)CN(c1ccc(-c2cnn(C)c2C(=O)O)cc1Nc1nc2ccccc2o1)C1CCCCC1 [example 178, 4-{3-[(1,3-benzoxazol-2-yl)amino]-4-[cyclohexyl(2-methylpropyl)amino]phenyl}-1-methyl-1H-pyrazole-5-carboxylic acid] | <5 | –
– | 50.1 | CC(C)CN(c1ccc(-c2cccnc2C(=O)O)cc1Nc1nc2ccccc2[nH]1)C1CCCCC1 [example 278, 3-{3-[(1H-1,3-benzodiazol-2-yl)amino]-4-[cyclohexyl(2-methylpropyl)amino]phenyl}pyridine-2-carboxylic acid] | <5 | –
